# Laboratory results from a melting point compilation (Tetko et al.; mined from patent text by program, amines drawn as free bases though some values may be those of a salt).
row,Compound,melting point
1,N#Cc1ccccc1Oc1cc(-n2cccc2)ccc1O,120 to 122 °C
2,Cc1sc(-c2ccccc2)nc1COc1ccc(CCC[C@@H]2OC(=O)NC2=O)cc1,113 to 114 °C
3,CC1CC(=O)NN=C1c1ccc(NCC(C)(C)N)cc1 (configuration not stated),184 to 185 °C
4,CCN(CC)C(=CC1=NCCCC1)c1ccccc1,169 to 170 °C
5,OCC1OC(n2cnc3c(Nc4ccc(Cl)cc4)ccnc32)C(O)C1O (configuration not stated),215 °C
6,COc1ccc(CNN2C(=O)CC(C)c3cnc(SC)nc32)cc1Cl (configuration not stated),118 to 120 °C
7,CC(C)N1CC2(COc3ccc(N)cc3OC2)OC1=O (configuration not stated),157 to 159 °C
8,CC(C)Cn1c2c(c(=O)n(C)c1=O)C(=O)C(=Cc1cccnc1)S2,215 to 216 °C
9,N#Cc1ccc(-n2c(=O)cc(C(F)(F)F)[nH]c2=O)cc1[N+](=O)[O-],135 °C
10,CCOc1ccc2c(c1)n(C1CCCCC1)c(=O)n2S(=O)(=O)c1ccc([N+](=O)[O-])cc1OC,162 °C
11,CCOP(=O)(OCC)c1cc2cc(N)c(C(F)(F)F)cc2[nH]c1=O,240 to 244 °C
12,C=C(CC(=O)Nc1cccc(/C=C/c2nc(C3CCCCC3)cs2)c1)C(=O)O,187 to 189 °C
13,CC(C)(C)OC(=O)N[C@@H](CC1CCCCC1)[C@H](O)c1ccccn1,84 to 85 °C
14,CN(C)c1ccc(-c2n[nH]c3c2c(=O)n(-c2ccccc2)c2ncccc32)cc1,> 300 °C
15,COC(=O)c1ccccc1OCC(O)CNC(C)(C)CNC(N)=O (configuration not stated),62 °C
16,Cc1c(OCc2ccccc2)c(=O)ccn1CCC(=O)O,81 to 83 °C
17,CC(=NO)c1cc2c3ccccc3[nH]c(=O)n2n1,340 to 342 °C
18,COc1ccc(S(=O)(=O)Nc2cccnc2Nc2ccc(C(=O)O)cc2)cc1,248 to 250 °C
19,CCOC(=O)c1cc2c3n(ccc-2n1)CC(c1ccccc1)=N3,255 to 257 °C
20,CC(C)(C)N1CC(=O)Nc2cccc(Cl)c21,198 °C

row,Compound,melting point
1,O=C(O)Cc1ccc2c(c1)sc1cccc(Cl)c12,203 to 206 °C
2,CCNC(=O)Nc1ccc2c(c1Cl)C(c1ccccc1F)=NCC(=O)N2C,155 to 160 °C
3,N#CCCNC(=S)C1CC(CF)(CF)Oc2ccc([N+](=O)[O-])cc21 (configuration not stated),183 to 184 °C
4,CCCCCCCCCCCCCCCc1cc(OCC(COC(=O)NCCCCCn2cnnn2)Oc2cc(C)on2)no1 (racemic),82 to 84 °C
5,Cc1cc(F)cc(C=O)c1O,49 to 52 °C
6,CCN(CC)S(=O)(=O)c1cc2c(c(C(=O)O)c1)OCCO2,149 °C
7,C=CCc1cn(C2OC(CO)C(O)C2O)c(=O)nc1N (configuration not stated),176 °C
8,COc1ccc(-c2ncc(Cl)nc2-c2ccc(OC)cc2)cc1,126 to 127 °C
9,CC(C)CNC(=S)Nc1cc(Cl)cc(Cl)c1,144 °C
10,CCCCCCCCCCCCCC(=O)Nc1cc(NC(=O)CCCCCCCCCCCCC)cc(C(=O)N(CC(=O)O)CC(=O)O)c1,109 to 111 °C
11,CC(C)[C@](C)(O)C(=O)O,47 to 49 °C
12,CN(C(CCn1c(=O)[nH]c2ccsc2c1=O)C(=O)O)S(=O)(=O)c1ccc(Oc2ccccc2)cc1 (configuration not stated),218 to 219 °C
13,CCCC(=NOc1ccc(Cl)cc1)c1cc(Cl)ccc1NS(=O)(=O)C(F)(F)F,62.5 to 64.5 °C
14,COC(=O)C1CCC(c2csc(NC(=N)N)n2)C1 (configuration not stated),124 to 126 °C
15,CC(C)NCC(O)COc1ccc(C2=NNC(=O)CC2)c2ccccc12 (configuration not stated),131 to 135 °C
16,CCCn1nc2c(N)nc3ccccc3c2c1CCNC(=O)Nc1ccc(F)c(F)c1,211 to 212 °C
17,Nc1ncnc2c1ncn2OC(CO)COCP(=O)(O)O (configuration not stated),222 to 225 °C
18,NC(=S)c1cc(Oc2ccc(C(F)(F)F)cc2Cl)ccc1[N+](=O)[O-],152 °C
19,COC(=O)C1(O)CC(O[Si](C)(C)C(C)(C)C)C(O)C(O[Si](C)(C)C(C)(C)C)C1 (configuration not stated),82 to 82.5 °C

# Second part, the compound after the results:
row,melting point,Compound
1,114 to 115 °C,O=C1c2c(ccc(O)c2O)CC1C(=O)c1c(F)c(F)c(F)c(F)c1F (configuration not stated)
2,133 °C,CC(=O)OC1CSC(Oc2ccc(Cl)c(-c3cccnc3)c2)C(OC(C)=O)C1OC(C)=O (configuration not stated)
3,178 to 179 °C,Cc1cccc(Nc2nc(N(C)C)ncc2S(=O)(=O)NC(=O)NC(C)C)c1
4,> 200 °C,CN(C)CCCOc1ccc(C[C@H](NC(=O)[C@@H]2CCCN2S(=O)(=O)c2cn(C)cn2)C(=O)O)cc1
5,99 to 100 °C,COc1ccc(C=Cc2ccc(CBr)cc2)c(Cl)c1
6,110 to 111 °C,CCOC(=O)c1ccccc1CCC(=O)Nc1cccc(/C=C/c2nc(C3CCC3)cs2)c1
7,243 to 245 °C,Cc1cc(-c2c(-c3ccc(S(N)(=O)=O)cc3)cnn(-c3ccc(F)c(Cl)c3)c2=O)ccc1F
8,> 280 °C,Cc1ccc2nc(Cl)nc(NN)c2c1
9,157 to 158 °C,O=C(O)c1ccc(CCCC2SCC(=O)N2CCC2(O)CCSCC2)cc1 (configuration not stated)
10,218 to 220 °C,CCNc1ccc2nc(Cl)c(S(N)(=O)=O)n2n1
11,254 to 256 °C,CC(=O)c1c(O)c(=O)[nH]c2cc(Cl)ccc2c1=O
12,280 to 282 °C,CCN(CC)N(C(C)=O)c1nc2cc3nc(N(C(C)=O)N4CCCCC4)sc3cc2s1
13,224 to 225 °C,COc1ccc(C(=O)N2CCc3cc(O)c(OC)cc3C2=O)cc1
14,199 to 200 °C,CC(C)n1nc(-c2c(-c3ccccc3)nn3ccc(OCC(=O)NC4CC4)cc23)ccc1=O
15,282 to 284 °C,Nc1nc2c(sc(=O)n2C2OC(COC(=O)c3ccccc3)C(OC(=O)c3ccccc3)C2F)c(=O)[nH]1 (configuration not stated)
16,130 to 131 °C,COc1ccc(-c2c(C=O)cc(OC)c(OC)c2OC)c(C=O)c1OS(C)(=O)=O
17,168 °C,CCCCS(=O)(=O)NCCc1nc(-c2ccc(-c3ccccc3)cc2)c[nH]1

row,melting point,Compound
1,175 °C,COc1ccc(S(=O)(=O)Nc2c(C)cc(C#N)cc2C(=O)O)cc1
2,108 to 110 °C,C[Si](C)(C)c1c(C#N)c(C(F)(F)F)nn1-c1c(Cl)cc(C(F)(F)F)cc1Cl
3,162 to 164 °C,CN(Cc1cc2c(=O)c(C(=O)NCc3ccc(Cl)cc3)cn(C)c2s1)CC(O)c1ccccc1 (configuration not stated)
4,105 to 106 °C,OCCOCC(O)c1ccc2ccccc2c1 (configuration not stated)
5,77 °C,CCC1CCC(c2ccc(-c3cc(F)c(C(F)(F)Oc4cc(F)c(C(F)(F)F)c(F)c4)c(F)c3)c(F)c2)CC1 (configuration not stated)
6,68 to 70 °C,CCCn1cnc2c1c(=O)n(CCCCCCO)c(=O)n2C
7,109 to 111 °C,Cc1ccc(C)n1CCNC(=O)CN1CCCC1=O
8,52 to 53 °C,CCOC(=O)C(Oc1cccc2[nH]ccc12)C(=O)OCC
9,137 to 140 °C,CNC(=NC#N)NCCSCc1cccc(NC(N)=NCC(F)(F)F)n1
10,151 to 154 °C,CC1=C(C(=O)OCCOC(C)C)C(c2cccc(Cl)c2Cl)C(c2nnco2)=C(C)N1 (configuration not stated)
11,45 °C,CCOc1ccc(C#N)c(F)c1F
12,103 to 104 °C,CCN(CC)C(=O)N1SN(C(C)C)C(=O)c2ccccc21
13,69 to 71 °C,CC(C)(C)OC(=O)NC(CO)C(=O)c1ccccc1 (configuration not stated)
14,138 to 139 °C,CCCc1cn(CC(=O)O)nc1OCCCc1cn(-c2ccc(C(F)(F)F)cn2)nc1CCC
15,167 to 173 °C,CC1(C)C(=N)N(CC(N)=O)c2ccccc21
16,145 to 147 °C,O=C(NCC(F)(F)F)c1cc(Cl)cc(Cl)c1
